Assay results reported in patent publication US20150087616A1, “PREBIOTIC FORMULATIONS AND METHODS OF USE” (RITTER PHARMACEUTICALS, INC., priority 2011, published 2015).

Test system: Bifidobacterium species
Assay: Comparative growth of Bifidobacterium species in scratch MRS with 2% carbohydrate
Type: cell-based
Settings: five (four) Bifidobacterium species; scratch MRS + 2% carbohydrate
Description: The objective of the study was to determine the ability of various Bifidobacterium species and strains to grow on galactooligosaccharides.
The growth of Lactobacillus and Bifidobacterium strains was evaluated in scratch MRS (Table 16) supplemented with 2% of a carbohydrate solution. The carbohydrates used in the experiments were: Glucose—Fisher; Lactose—Fisher; GOS1—95% GOS purity from Inalco SPA—Provided by Ritter Pharmaceuticals; GOS2—90% GOS purity from GTC—provided by Ritter Pharmaceuticals.
Carbohydrate stock solutions were filter sterilized and then added to either a scratch MRS formulation (Table 16), or a semisynthetic medium (Table 17).
Lactobacillus and Bifidobacterium cultures were propagated in MRS broth overnight, and then transferred once through the test medium. For growth experiments, cultures were inoculated into the MRS scratch medium containing one of the 4 carbohydrates to be examined Growth was monitored either: **automatically, using a FLUOStar OPTIMA microtiter plate reader to monitor the change in absorbance (A600) as a function of the time. The strains were incubated at 37 C aerobically for these experiments; or ** manually, using a standard spectrophotometer to monitor the change in OD600 nm over time, in 5 ml liquid culture tubes. These cultures were incubated anaerobically at 37° C. in a COY anaerobic chamber, flushed with anaerobic gas. […]

OC[C@H]1O[C@@H](O[C@H]2[C@H](O)[C@@H](O)C(O)O[C@@H]2CO)[C@H](O)[C@@H](O)[C@H]1O (stereo partly shown) [lactose, Lactose]
comparative growth on four carbohydrate sources (glucose, lactose, GOS1, GOS2): none of the Bifidobacterium strains used in these experiments grew
